In patent US20260209234A1, “SUBSTITUTED DIHYDROPYRROLO[3,4-D]PYRIMIDINE COMPOUNDS AND THEIR USE IN TREATING MEDICAL CONDITIONS” (Karuna Therapeutics, Inc., priority 2022, published 2026):

How the values were obtained:
human M4 receptor = target: T1, human M4 receptor (Homo sapiens, UniProt P08173); test: M4 GTPγS PAM assay; format: biochemical; conditions: membranes of CHO-K1 cells stably expressing human M4; EC20 acetylcholine 40 nM; 35S-GTP
T1 construct: expressed in transfected cells
T1 sequence (P08173 1-479): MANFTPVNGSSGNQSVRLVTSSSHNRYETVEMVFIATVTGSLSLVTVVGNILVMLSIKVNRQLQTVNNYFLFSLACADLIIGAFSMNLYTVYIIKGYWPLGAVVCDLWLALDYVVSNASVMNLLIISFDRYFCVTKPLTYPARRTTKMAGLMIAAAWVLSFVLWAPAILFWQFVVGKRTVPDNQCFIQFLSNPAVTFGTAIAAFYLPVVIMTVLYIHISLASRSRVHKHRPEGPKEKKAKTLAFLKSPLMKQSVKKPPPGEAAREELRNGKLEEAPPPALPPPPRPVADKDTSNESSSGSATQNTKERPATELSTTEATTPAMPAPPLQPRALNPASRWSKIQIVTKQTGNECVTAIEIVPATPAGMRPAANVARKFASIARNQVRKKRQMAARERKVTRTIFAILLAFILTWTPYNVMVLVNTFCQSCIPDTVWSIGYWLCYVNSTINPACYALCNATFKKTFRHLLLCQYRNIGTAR
Description: The M4 GTPγS PAM method was used. Membranes were prepared for GTPgS binding assays from CHO-K1 cells stably expressing human M4 receptor. Briefly, cells were grown in 5-layer cell culture flasks. Cells were washed with 50 mL of PBS and then dissociated with 0.05% trypsin. Dissociated cells were then collected by centrifugation at 650×g for 8 minutes at 4° C. Pellets were washed again in PBS by centrifugation and resuspended in 30 mL of 20 mM HEPES, 10 mM EDTA, pH 7.4. After sitting on ice for 30 min, membranes were collected by centrifugation at 50000×g for 15′ at 4° C., resuspended in 30 mL of 20 mM HEPES, 0.1 mM EDTA, pH 7.4 and collected again by centrifugation. Pellets were then washed twice by centrifugation in 30 mL of 20 mM HEPES, pH 7.4, and stored at −80° C. until the day of the assay. On the day of the assay, pellets were thawed on ice and resuspended in 1 mL of 20 mM HEPES, pH 7.4, 10 mM MgCl2, 100 mM NaCl using dounce homogenization. Membrane protein concentration is determined by BCA protein assay (Promega, Madison, WI) according to Promega guidelines.
On the day of the assay, serial dilutions of test PAM compounds were brought up in assay buffer (20 mM HEPES, 10 mM MgCl2, 100 mM NaCl) at 4× final assay concentration. […] of membrane homogenates (containing […] of membrane protein) were prepared in assay buffer supplemented with GDP at 4× final assay concentration (final assay concentration of GDP is 5 μM for M2 and 0.1 μM for M4) and dispensed into 96 well polypropylene, U-bottom Greiner plates. […] of vehicle or test PAM compound at 4× of final assay concentration diluted in the assay buffer were added to membrane and plates are incubated for 10-15 minutes at room temperature with gentle shaking. Then, […] of EC20 acetylcholine in assay buffer at 4× final assay concentration was added to assay plates (EC20 final assay concentrations was 40 nM for human M4).
Plates were then incubated, with shaking, for an additional 10-15 minutes. […] of 0.4 nM 35S-GTP (Perkin Elmer, Waltham, MA) in assay buffer was added to assay mixtures. The binding reaction is left on the shaker for 1 hour at room temperature. Membranes in assay reactions were then transferred to GF/C filter plates (Unifilter, Perkin Elmer) and washed three times using a FilterMate Harvester (Perkin Elmer) with cold assay buffer containing no GDP. Filter plates were then dried at 40° C. overnight followed by the addition of […] of Beta Plate Scintillation liquid. Plates are top and bottom sealed before being read on TopCount scintillation counter (Perkin Elmer, Waltham, MA).

rM4 receptors = target: T2, rM4 receptors (Rattus norvegicus, UniProt P08485); test: Rat M4 PAM pERK assay; format: cell-based; conditions: CHO cells expressing rM4; EC20 of acetylcholine (10 nM final); TR-FRET
T2 construct: expressed in transfected cells; host or cells: CHO cells
T2 sequence (P08485 1-478): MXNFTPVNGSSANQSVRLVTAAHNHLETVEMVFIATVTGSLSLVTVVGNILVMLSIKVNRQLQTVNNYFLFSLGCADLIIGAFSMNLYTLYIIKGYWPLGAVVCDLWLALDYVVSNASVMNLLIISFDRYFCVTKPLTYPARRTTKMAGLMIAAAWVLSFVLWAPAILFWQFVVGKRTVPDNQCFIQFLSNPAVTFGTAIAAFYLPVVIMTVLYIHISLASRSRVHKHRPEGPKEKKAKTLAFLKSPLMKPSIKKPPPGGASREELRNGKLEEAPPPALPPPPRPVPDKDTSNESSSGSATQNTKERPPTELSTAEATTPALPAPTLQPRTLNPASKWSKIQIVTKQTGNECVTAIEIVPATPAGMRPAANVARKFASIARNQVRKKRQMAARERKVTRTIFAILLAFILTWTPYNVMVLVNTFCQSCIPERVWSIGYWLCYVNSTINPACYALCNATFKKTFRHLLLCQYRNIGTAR
Description: (§1) Chinese hamster ovary (CHO) cells expressing either hM4 or rM4 receptors were frozen in assay ready vials (5×10^6 cells/vial) after bulking-up in culture. The day before an assay, vial(s) were thawed and cells seeded in 384 well white proxiplates at 1000/well for hM4 cells and at 2000/well for rM4 cells, in 10 μL of growth media (Hams/F12 with glutamax and 10% FCS) and incubated overnight at 37° C./5% CO2.
(§2) On the following morning, the growth media was removed by ‘flicking out’ over a bin, patting the inverted plate onto tissue, and then replacing with 10 μL of wash media (Hams/F12 with glutamax and 8 mM HEPES, NB: serum free). Then, the wash media was removed in the same way and replaced with 8 μL/well of the serum free media. Plates were then re-incubated for a further 4 hours at 37° C./5% CO2.
(§3) Compounds for testing were solubilized to 10 mM in DMSO and compound addition plates, consisting of ten-point concentration response curves (CRC) in duplicate points (10 μM top concentration, 1/2 log dilution series), were prepared by acoustic dispensing and the compound management group.
(§4) After the 4-hour incubation in serum free media, a 4 μL aliquot of the 3× compound solution containing an EC20 of acetylcholine (10 nM final concentration) was added to the cell plate using a 384 well plate to plate transfer. Then, the plate lid was replaced, and the cells incubated for 5 mins at 37° C./5% CO2. Following this final incubation, all cellular processes were stopped by the addition of 4 μL/well of lysis and blocking buffer and plates were incubated for 30 minutes at RT on an orbital shaker (gentle setting). Then, a final addition of 4 μL/well of antibody detection mix, containing both the Europium-Cryptate (donor) and d2 (acceptor) tagged detection components, was added followed by a further 2-hour incubation at RT, and then the plate was read using a TR-FRET (time resolved fluorescence resonance energy transfer) based protocol.

hM4 receptors = target: T3, hM4 receptors (Homo sapiens, UniProt P08173); test: Human M4 PAM pERK assay; format: cell-based; conditions: CHO cells expressing hM4; EC20 of acetylcholine (10 nM final); TR-FRET
T3 construct: expressed in transfected cells; host or cells: CHO cells
T3 sequence (P08173 1-479): T1 sequence (P08173 1-479)
Description: as §1, §2, §3, §4

SMILES | EC50 (human M4 receptor) [nM] | EC50 (rM4 receptors) [nM] | EC50 (hM4 receptors) [nM]
COc1nc(C#N)nc2c1C(C)N(C(=O)CC1CN(c3ccnc(C(F)(F)F)c3)C1)C2 (single isomer, unassigned) [Compound I-5, 4-Methoxy-5-methyl-6-(2-(1-(2-(trifluoromethyl)pyridin-4-yl)azetidin-3-yl)acetyl)-6,7-dihydro-5H-pyrrolo[3,4-d]pyrimidine-2-carbonitrile] | ≥ 2000 | ≥ 2000 | ≥ 2000
COc1nc(C#N)nc2c1C(C)N(C(=O)CC1CN(c3cccnc3)C1)C2 (single isomer, unassigned) [Compound I-7, 4-Methoxy-5-methyl-6-(2-(1-(pyridin-3-yl)azetidin-3-yl)acetyl)-6,7-dihydro-5H-pyrrolo[3,4-d]pyrimidine-2-carbonitrile] | ≥ 2000 | ≥ 2000 | ≥ 2000
COc1nc(C#N)nc2c1C(C)N(C(=O)CC1CN(c3ccnc(C4CC4)c3)C1)C2 (single isomer, unassigned) [Compound I-11, 6-(2-(1-(2-Cyclopropylpyridin-4-yl)azetidin-3-yl)acetyl)-4-methoxy-5-methyl-6,7-dihydro-5H-pyrrolo[3,4-d]pyrimidine-2-carbonitrile] | ≥ 2000 | ≥ 2000 | ≥ 2000
COc1nc(C#N)nc2c1C(C)N(C(=O)CC1CN(c3cccc(C(F)(F)F)c3)C1)C2 (single isomer, unassigned) [Compound I-15, 4-Methoxy-5-methyl-6-(2-(1-(3-(trifluoromethyl)phenyl)azetidin-3-yl)acetyl)-6,7-dihydro-5H-pyrrolo[3,4-d]pyrimidine-2-carbonitrile] | ≥ 2000 | ≥ 2000 | ≥ 2000
COc1nc(C)nc2c1CN(C(=O)CC1(F)CN(c3ccnc(C(F)(F)F)c3)C1)C2 [Compound I-42, 2-(3-Fluoro-1-(2-(trifluoromethyl)pyridin-4-yl)azetidin-3-yl)-1-(4-methoxy-2-methyl-5,7-dihydro-6H-pyrrolo[3,4-d]pyrimidin-6-yl)ethan-1-one] | ≥ 2000 | – | ≥ 2000
Cc1nc2c(c(OC3CC3)n1)CN(C(=O)CC1CN(c3ccnc(C(F)(F)F)c3)C1)C2 [Compound I-49, 1-(4-Cyclopropoxy-2-methyl-5,7-dihydro-6H-pyrrolo[3,4-d]pyrimidin-6-yl)-2-(1-(2-(trifluoromethyl)pyridin-4-yl)azetidin-3-yl)ethan-1-one] | ≥ 2000 | – | ≥ 2000

Second part, the molecule after the results:

EC50 (human M4 receptor) [nM] | EC50 (rM4 receptors) [nM] | EC50 (hM4 receptors) [nM] | SMILES
100 to 500 | 500 to 2000 | 100 to 500 | COc1nc(C)nc2c1C(C)N(C(=O)CC1CN(c3ccnc(C(F)(F)F)c3)C1)C2 (racemic) [Compound I-51, 1-(4-Methoxy-2,5-dimethyl-5,7-dihydro-6H-pyrrolo[3,4-d]pyrimidin-6-yl)-2-(1-(2-(trifluoromethyl)pyridin-4-yl)azetidin-3-yl)ethan-1-one]
≤ 100 | 500 to 2000 | 100 to 500 | COc1nc2c(c(OC)n1)C(C)N(C(=O)CC1CN(c3ccnc(C(F)(F)F)c3)C1)C2 (racemic) [Compound I-67, 1-(2,4-Dimethoxy-5-methyl-5,7-dihydro-6H-pyrrolo[3,4-d]pyrimidin-6-yl)-2-(1-(2-(trifluoromethyl)pyridin-4-yl)azetidin-3-yl)ethan-1-one]
≥ 2000 | ≥ 2000 | ≥ 2000 | COc1nc(C#N)nc2c1C(C)N(C(=O)CC1CN(c3ncns3)C1)C2 (single isomer, unassigned) [Compound I-4, 6-(2-(1-(1,2,4-Thiadiazol-5-yl)azetidin-3-yl)acetyl)-4-methoxy-5-methyl-6,7-dihydro-5H-pyrrolo[3,4-d]pyrimidine-2-carbonitrile]
500 to 2000 | 100 to 500 | ≤ 100 | COc1nc(C#N)nc2c1C(C)N(C(=O)CC1CN(c3cccnc3)C1)C2 (single isomer, unassigned) [Compound I-8, 4-Methoxy-5-methyl-6-(2-(1-(pyridin-3-yl)azetidin-3-yl)acetyl)-6,7-dihydro-5H-pyrrolo[3,4-d]pyrimidine-2-carbonitrile]
≤ 100 | 500 to 2000 | ≤ 100 | COc1nc(C#N)nc2c1C(C)N(C(=O)CC1CN(c3ccnc(C4CC4)c3)C1)C2 (single isomer, unassigned) [Compound I-12, 6-(2-(1-(2-Cyclopropylpyridin-4-yl)azetidin-3-yl)acetyl)-4-methoxy-5-methyl-6,7-dihydro-5H-pyrrolo[3,4-d]pyrimidine-2-carbonitrile]
500 to 2000 | ≥ 2000 | ≥ 2000 | COc1nc(C#N)nc2c1C(C)N(C(=O)CC1CN(c3ccnc(OC4CC4)c3)C1)C2 (single isomer, unassigned) [Compound I-13, 6-(2-(1-(2-Cyclopropoxypyridin-4-yl)azetidin-3-yl)acetyl)-4-methoxy-5-methyl-6,7-dihydro-5H-pyrrolo[3,4-d]pyrimidine-2-carbonitrile]
≤ 100 | 500 to 2000 | ≤ 100 | COc1nc(C#N)nc2c1C(C)N(C(=O)CC1CN(c3ccnc(OC4CC4)c3)C1)C2 (single isomer, unassigned) [Compound I-14, 6-(2-(1-(2-Cyclopropoxypyridin-4-yl)azetidin-3-yl)acetyl)-4-methoxy-5-methyl-6,7-dihydro-5H-pyrrolo[3,4-d]pyrimidine-2-carbonitrile]
